Where “and” joins values, the source holds several entries; their conditions need not be identical. Equal entries are not always repeated. Entries after “also recorded” stand apart in the source; their conditions may differ.
Assays:
[1] = Cold storage of fat emulsion (Intralipid) with ester admixture: visual inspection, pH, mean particle size; format: physicochemical; settings: for emulsion quality (oil droplets, creaming, oil separation), daily inspection: Example 5: mother concentrate in Intralipid 10%; for emulsion quality (oil droplets, creaming, oil separation), daily inspection / emulsion stability, daily visual inspection: +5°C; for emulsion quality (oil droplets, creaming, oil separation), daily inspection / emulsion quality, daily visual inspection / emulsion stability, daily visual inspection: 5 days; for emulsion quality, daily visual inspection: 5°C
Method: A so-called mother concentrate was prepared by dissolving 6 g of egg-yolk phospholipids in 40 g of 4-methyl-3-oxo-pentanoic acid ethyl ester at +60°C, while stirring. 34 g of 99% ethyl alcohol were then added to the solution, whereafter the solution was cooled to room temperature and dispensed into 20 ml glass flasks. Nitrogen gas was then bubbled through the liquid and the flasks then stoppered and capsuled. The bottles were then autoclaved at +120°C and at 118 kPa for 20 minutes. A 10% fat emulsion for parenteral nutrient administration (Intralipid^R retailed by KabiVitrum AB, Stockholm) was added to the preparation under strict asceptic conditions, to a 4-methyl-3-oxo-pentanoic acid ethyl ester concentration of 0.2, 1 and 3% respectively. The emulsion was shaken for 5 minutes in a shaking machine and then placed in a cold environment (+5°C). The emulsion was thereafter observed over a 5 day period, wherewith a daily inspection was carried out to assess the formation of oil droplets, creaming or oil separation. The assessment was made in comparison with a known emulsion for parenteral use (Intralipid^R 10%). […] Subsequent to 5 days storage, an analysis was made of the pH and mean particle size in a Coulter nanosizer. The following values were obtained:
(§1) A so-called mother concentrate produced by dissolving 6 g egg-yolk phospholipids in 40 g of 4-methyl-3-oxo-pentanoic acid-ethyl ester at +60°C, while stirring the system. 34 g of 99% ethyl alcohol were then added to the solution, whereafter the solution was cooled to room temperature and dispensed into 20 ml glass flasks. Nitrogen gas was perculated through the contents of the flasks, and the flasks subsequently stoppered and fitted with capsules. The flasks were then autoclaved at 120°C and 118 kPa over a period of 20 minutes. This preparation was added to a 20% fat emulsion (Intralipid^R) under strict aseptic conditions, such that the concentation of 4-methyl-3-oxo-pentanoic acid ethyl ester was 0.2 and 1 and 3% respectively. The emulsion was shaken for 5 minutes in a shaker and then placed in a cold environment (5°C). The emulsion was inspected over a period of 5 calender days, wherewith a visual inspection was carried out daily in order to ascertain the occurrence of any oil droplets that may form, creaming or oil separation. The assay was effected by comparison with a known emulsion for parenteral use (Intralipid^R 20%). […] The pH of the emulsion was measured after a 5 day storage period. The mean particle size was measured in a Coulter^R nanosizer. The following values were obtained:
as §1, with “prepara tion” for “preparation”, “10%” for “20%”, “10%).” for “20%).”, “obtained: […]” for “obtained:”

[2] = Total parenteral nutrition (TPN) with ester as energy substitute in rats; settings: 9 days
Method: Sprague-Dawley male rats weighing 180-190 g were sur­gically fitted with a central vein catheter protected by a saddle (Roos et al, 1981). Total parenteral nutrition (TPN) was administered in accordance with the following standard formula: Fat: 8 g/kg body weight and 24 hours Nitrogen: 1,2 g/kg body weight and 24 hours Total energy supplied: 1257 kJ/kg body weight and 24 hours Liquid: 300 ml/kg body weight and 24 hours The glucose to fat ratio was 70-30 energy percent. The energy percentage obtained from the energy substitutes during the test period corresponded to about 5% NPC. The TPN-mixture was obtained by mixing Vamin^R 14 (a solution of essential and non-essential amino acids for paren­teral nutrient administration, retailed by KabiVitrum AB) with no electrolytes, glucose solution 50% and Intralipid^R 20% in suitable proportions and adding adequate quantities of electrolytes, trace minerals and vitamins. Subsequent to infusing the rats continuously for one week (20 hours/day), the animals were divided randomly into three groups, with 6 animals in each group. The animals of one group were administered with the same TPN-formula as that previously mentioned (the reference group). […] The compounds were given in a dosage of 2 g/kg body weight and 24 hours in a yield corres­ponding to equivalent glucose energy quantities. In other respects, the TPN-program or formula was the same as that for the reference group. The experiment was then continued for a further 9 days, during which the weights of the animals were recorded daily and urine collected and frozen. At the end of the test period, the rats were killed by heart puncture while under a pentobarbital anesthetic and an autopsy was performed on the rat carcasses with microscopic examination. The body organs were sent to a laboratory for pathological assay.

Serr. maresc. ATCC 14756 = assay: Microorganism count in 2% ester emulsions (Example 12, Table 1); format: cell-based; settings: 2% emulsion, phosphate buffer pH=7.0, +37°C, Additive/ml 6310
Method: (§2) In addition to ester, the emulsions also comprised egg-yolk phospholipid 1,2% and sterile water. The emulsions were prepared aseptically, by emulsifying sterile-filtered ester with a sterilized dispersion of egg-yolk phospholipids. Aliquots of these emulsions were diluted with a phosphate buffer (0.01 M, pH=7.0) in the proportions of 1 and 10 respectively, so as to obtain 2-percent emulsions. Various microorganisms according to Table 1 below were added to these emulsions. The samples were then incubated at +37°C for 20 hours. Counting of the number of microorganisms was started after 2 and 20 hours, in the manner described in microbiological literature. Checks were run on a pure phosphate buffer with additives of the same microorganisms as earlier, in parallel with the aforesaid experiments, while checks were run in Tryptone Soya broth (TSB) with additions of the same microorganisms, in order to ascertain whether or not the microorganisms could survive, i.e. could grow under the ideal conditions. […]

E. coli ATCC 8739 = assay: as above; format: cell-based; settings: 2% emulsion, phosphate buffer pH=7.0, +37°C, Additive/ml 6310
Method: as §2

Ulocladium sp. (mould) = assay: as above; format: cell-based; settings: 2% emulsion, phosphate buffer pH=7.0, +37°C, Additive/ml 2512
Method: as §2

[3] = Example 5: Intralipid 10%, 0.2% admix, after 5 days storage
[4] = Example 5: Intralipid 10%, 1% admix, after 5 days storage
[5] = Example 5: Intralipid 10%, 3% admix, after 5 days storage
[6] = Example 30: Intralipid 20%, 0.2% admix
[7] = Example 30: Intralipid 20%, 1% admix
[8] = Example 30: Intralipid 20%, 3% admix
[9] = Example 31: Intralipid 10%, 0.2% admix
[10] = Example 31: Intralipid 10%, 1% admix
[11] = Example 31: Intralipid 10%, 3% admix
[12] = Example 31: Intralipid 10%, 5% admix

## CCOC(=O)CC(=O)C(C)C [4-methyl-3-oxo-pentanoic acid ethyl ester]
[1]; [3]
  Mean particle size (single readings, Coulter nanosizer): 258 and 264 and 267 and 250
  Mean particle size, X: 261
  pH: 7.2
[1]; [4]
  Mean particle size (single readings, Coulter nanosizer): 245 and 253 and 250 and 235 and 242
  Mean particle size, X: 246
  pH: 7.0
[1]; [5]
  Mean particle size (single readings, Coulter nanosizer): 264 and 258 and 248 and 250
  Mean particle size, X: 258
  pH: 6.8
[1]; 1% addition
  emulsion quality (oil droplets, creaming, oil separation), daily inspection: had no affect on the quality
[1]; 3% addition
  emulsion quality (oil droplets, creaming, oil separation), daily inspection: fully acceptable, but deteriorated slowly during day 4 and 5
[1]; [6]
  Mean particle size (single readings, Coulter nanosizer): 325 and 316 and 320 and 327
  Mean particle size, X: 323
[1]; Example 30: Intralipid 20%, 0.2% admix, after 5 day storage
  pH: 7.3
[1]; [7]
  Mean particle size (single readings, Coulter nanosizer): 323 and 327 and 329 and 319 and 336
  Mean particle size, X: 326
[1]; Example 30: Intralipid 20%, 1% admix, after 5 day storage
  pH: 6.9
[1]; [8]
  Mean particle size (single readings, Coulter nanosizer): 322 and 319 and 320 and 333
  Mean particle size, X: 323
[1]; Example 30: Intralipid 20%, 3% admix, after 5 day storage
  pH: 6.5
[1]; Example 30: mother concentrate in Intralipid 20%, 0.2% addition
  emulsion quality, daily visual inspection: No change in quality
[1]; Example 30: mother concentrate in Intralipid 20%, 1% addition
  emulsion quality, daily visual inspection: No change in quality
[1]; Example 30: mother concentrate in Intralipid 20%, 3-percent mixture
  emulsion quality, daily visual inspection: fully acceptable over the first 3 days
[1]; [9]
  Mean particle size (single readings, Coulter nanosizer): 241 and 239 and 246
  Mean particle size, X: 241
[1]; Example 31: Intralipid 10%, 0.2% admix, after 5 day storage
  pH: 7.3
[1]; [10]
  Mean particle size (single readings, Coulter nanosizer): 244 and 249 and 246 and 251
  Mean particle size, X: 247
[1]; Example 31: Intralipid 10%, 1% admix, after 5 day storage
  pH: 6.9
[1]; [11]
  Mean particle size (single readings, Coulter nanosizer): 249 and 246 and 240 and 236 and 243
  Mean particle size, X: 243
[1]; Example 31: Intralipid 10%, 3% admix, after 5 day storage
  pH: 6.7
[1]; [12]
  Mean particle size (single readings, Coulter nanosizer): 244 and 252 and 254
  Mean particle size, X: 251
[1]; Example 31: Intralipid 10%, 5% admix, after 5 day storage
  pH: 6.7
[1]; Example 31: mother concentrate in Intralipid 10%, 0.2% addition
  emulsion quality, daily visual inspection: No change in quality
[1]; Example 31: mother concentrate in Intralipid 10%, 1% addition
  emulsion quality, daily visual inspection: No change in quality
[1]; Example 31: mother concentrate in Intralipid 10%, 3% addition
  emulsion quality, daily visual inspection: No change in quality; also recorded: fully acceptable over the first 3 days
[1]; Example 34: 20 percent fat emulsion, 5% emulsion, end of 5-day period (reference emulsion pH=7.9)
  pH: 5.0
[1]; Example 34: pure ester in 10% fat emulsion (Intralipid), 0.2%
  emulsion stability, daily visual inspection: stable over the whole of the test period
[1]; Example 34: pure ester in 10% fat emulsion, 1%
  emulsion stability, daily visual inspection: stable over the whole of the test period
[1]; Example 34: pure ester in 10% fat emulsion, 3%
  emulsion stability, daily visual inspection: stable over the whole of the test period
[1]; Example 34: pure ester in 10% fat emulsion, 5%
  emulsion stability, daily visual inspection: stable over the whole of the test period; also recorded: stable over the first 2 days
[1]; Example 34: pure ester in 20 percent fat emulsion, 1% admixture
  emulsion stability, daily visual inspection: remained stable over the whole of the test period
[1]; Example 34: pure ester in 20 percent fat emulsion, 5% admixture
  emulsion stability, daily visual inspection: remained stable for 2 days
[2]; 2 g/kg body weight and 24 hours
  toxicity at the dosages tested: non-toxic
[2]; ester 2 g/kg body weight and 24 hours in place of equivalent glucose energy
  average growth per day during the whole of the test period: 3.7 ± 0.8 g
Serr. maresc. ATCC 14756; 2 hrs
  number of microorganisms: 0
Serr. maresc. ATCC 14756; 20 hrs
  number of microorganisms: 0
E. coli ATCC 8739; 2 hrs
  number of microorganisms: 0
E. coli ATCC 8739; 20 hrs
  number of microorganisms: 0
Ulocladium sp. (mould); 2 hrs
  number of microorganisms: 3981
Ulocladium sp. (mould); 20 hrs
  number of microorganisms: 0
